# In paper PMC12549899 (Nature Communications, 2025):
# Molecular target: T1, human OTOP1 (hOTOP1) (Homo sapiens, UniProt Q7RTM1)
# T1 construct: expressed in transfected cells; host or cells: HEK-293 (CRL-1573, ATCC)
# T1 sequence (Q7RTM1 1-612): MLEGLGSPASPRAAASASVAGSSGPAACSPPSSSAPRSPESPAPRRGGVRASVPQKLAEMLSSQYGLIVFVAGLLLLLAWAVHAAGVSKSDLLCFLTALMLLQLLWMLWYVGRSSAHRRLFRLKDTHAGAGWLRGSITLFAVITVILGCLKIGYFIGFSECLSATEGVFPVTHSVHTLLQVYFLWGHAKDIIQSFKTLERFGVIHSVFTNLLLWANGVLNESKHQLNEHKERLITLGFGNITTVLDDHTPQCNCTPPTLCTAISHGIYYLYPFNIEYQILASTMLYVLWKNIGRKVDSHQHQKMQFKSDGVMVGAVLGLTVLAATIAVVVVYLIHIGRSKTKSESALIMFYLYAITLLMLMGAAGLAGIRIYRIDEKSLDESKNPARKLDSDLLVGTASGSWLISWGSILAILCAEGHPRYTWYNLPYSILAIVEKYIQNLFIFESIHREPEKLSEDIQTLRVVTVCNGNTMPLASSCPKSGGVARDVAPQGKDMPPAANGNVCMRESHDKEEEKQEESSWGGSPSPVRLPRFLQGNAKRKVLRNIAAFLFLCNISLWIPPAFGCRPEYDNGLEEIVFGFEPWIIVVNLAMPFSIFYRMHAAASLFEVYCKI
# Test: Whole-cell patch-clamp, inhibition of currents, hOTOP1 in HEK-293 cells
# Format: cell-based
# Conditions: HEK293, 300 µM (saturating concentration of C11)
# Excerpt: The second series of compounds was again tested by whole-cell patch-clamp recording of DrOTOP1 expressed in HEK-293 cells. Of the 54 compounds tested, we identified 16 that inhibited DrOTOP1 acid-induced currents by over 25% (Fig. 2D and Supplementary Fig. 3E). […] The Hill coefficient of 1.52 indicated positive cooperativity and multiple binding sites, similar to C11. We next tested each of these compounds against mouse OTOP1 (mOTOP1) and human (Homo sapiens) OTOP1 (hOTOP1), which are among the closest related proteins in the mammalian proteome. […] For both compounds, we also determined whether there was any pH-dependence to their inhibitory effect by measuring dose-response curves over a range from pH 6.0, where sizable currents first appear, to pH 5.0. […]
# Whole-cell patch-clamp recording was performed as previously described[6],[22],[25]. Recordings were made with an Axopatch 200B amplifier, digitized with a Digidata 1322a 16-bit data acquisition system, acquired with pClamp 8.2 and analyzed with Clampfit 10 (Molecular Devices). […]
# All data are presented as mean ± SEM unless otherwise noted, and each data point represents an independent replicant. Inhibition of compounds was quantified as ((I2peak-I1)/(I2peak))*100, where I1 is the current immediately before wash-off and I2peak is the maximum recovered current (Supplementary Fig. 2). […]
smiles,measurement,value
"O=C(/C(=N\O)c1ccccc1)c1ccccc1 [C11, benzil monoxime]",inhibition at 300 µM,~24%
